Source: the NIST ThermoML archive (doi:10.1021/je800713c)

What was measured:
[1] = mn = molality of the nth substance listed, in mol/kg; conditions: 298.15 K, 101 kPa, Liquid
[2] = cn = amount concentration of the nth substance listed, in mol/dm3; conditions: 298.15 K, 101 kPa, Liquid, Alternating current cell with electrodes

CC(C)C[C@H](NC(=O)CN)C(=O)O [glycyl-L-leucine] + O
[1], Vibrating tube method
Conditions	mass density [kg/m3]
m1 = 0.01944	1000.64
m1 = 0.02958	1001.13
m1 = 0.0395	1001.61
m1 = 0.04928	1002.08
m1 = 0.057	1002.44
m1 = 0.07128	1003.12
m1 = 0.07696	1003.39
m1 = 0.09125	1004.06

CC(C)[C@H](NC(=O)CN)C(=O)O [glycyl-L-valine] + O
[1], Vibrating tube method
Conditions	mass density [kg/m3]
m1 = 0.02261	1000.88
m1 = 0.03982	1001.76
m1 = 0.06223	1002.9
m1 = 0.07858	1003.73
m1 = 0.1017	1004.89
m1 = 0.1513	1007.38
m1 = 0.1799	1008.77

NCC(=O)NCC(=O)O [glycylglycine] + O
[1], Vibrating tube method
Conditions	mass density [kg/m3]
m1 = 0.06033	1003.05
m1 = 0.08146	1004.21
m1 = 0.1018	1005.33
m1 = 0.1481	1007.84
m1 = 0.2504	1013.33
m1 = 0.2965	1015.78
m1 = 0.3421	1018.08

CCCC(=O)[O-].[Na+] [sodium butyrate] + O
Conditions	mass density [kg/m3]	molar conductivity [S·m2/mol]
[1], m1 = 0.5	1016.31	–
[1], m1 = 1	1033.73	–
[1], m1 = 1.5	1049.36	–
[1], m1 = 2	1064.03	–
[2], c1 = 0.0003234	–	0.00796
[2], c1 = 0.001116	–	0.00795
[2], c1 = 0.001273	–	0.00794
[2], c1 = 0.001488	–	0.00792
[2], c1 = 0.00188	–	0.00788
[2], c1 = 0.002076	–	0.00787
[2], c1 = 0.00243	–	0.00784
[2], c1 = 0.003167	–	0.00766
[2], c1 = 0.006298	–	0.00753
[2], c1 = 0.008849	–	0.00744
[2], c1 = 0.01124	–	0.00737
[2], c1 = 0.01353	–	0.00732
[2], c1 = 0.0155	–	0.00727
[2], c1 = 0.01721	–	0.00724
[2], c1 = 0.01916	–	0.0072
[2], c1 = 0.02091	–	0.00717
[2], c1 = 0.02284	–	0.00714
[2], c1 = 0.02481	–	0.0071
[2], c1 = 0.02647	–	0.00707

O [water] + CC(C)C[C@H](NC(=O)CN)C(=O)O
Conditions	mass density [kg/m3]
[1], Vibrating tube method, m2 = 0	999.705

O [water] + CC(C)[C@H](NC(=O)CN)C(=O)O
Conditions	mass density [kg/m3]
[1], Vibrating tube method, m2 = 0	999.705

O [water] + NCC(=O)NCC(=O)O
Conditions	mass density [kg/m3]
[1], Vibrating tube method, m2 = 0	999.705
